Reference: patent publication US11608313B2, “Adamantylmethylamine derivative and use thereof as pharmaceutical” (TOHOKU UNIVERSITY, priority 2017, dated 2023)

System: OBX mice
Assay: Tail-suspension test and forced swim test in OBX mice (depression model)
Format: in vivo
Conditions: single oral dose 1 mg/kg, analyzed after 1 hour
Procedure: OBX mice were used as a depression model to determine the effect of TP-014 (chronic oral treatment for 2 weeks (1 mg/kg)) to ameliorate a depression-like symptom. OBX mice are reported to show a decline in cognitive function, but have originally been established as a depression model. Depression analysis was done by tail-suspension test and forced swim test. In the tail-suspension test, mice are hung upside-down by their tail. If the hung mice are affected by depression, they show a longer immobility time. The immobility time of normal mice is shorter since they move actively when hung. In the forced swim test, mice are forced to swim in a beaker filled with water. Depression mice neither swim nor move (just float). The time (immobility time(s)) for which mice stay still in such a way is measured.
The same model mice were orally treated with a single dose of each of the test compounds (1 mg/kg), and analyzed after 1 hour by tail-suspension test and forced swim test. The results are shown in FIGS. 22-1 (tail-suspension test) and 22-2 (forced swim test).

SMILES: CC(C)(C)C(=O)N[C@@H](c1ccccc1)[C@H]1[C@H]2C[C@@H]3C[C@](Cl)(C2)C[C@@]1(O)C3 [TP-083, N—((R)-((1S,2R,3S,5S,7S)-5-chloro-1-hydroxyadamantan-2-yl)(phenyl)methyl)pivalamide]
- ameliorating effect on a depression-like symptom (tail-suspension test and forced swim test) compared with TP-014: higher ameliorating effect on a depression-like symptom than TP-014
